Reference: PubChem BioAssay (NCI)
Values joined by “and” are separate entries in the source; they are usually repeats but may differ in a detail not shown here. Identical values can stand only once.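 Briefly, cells in 96-well plates were exposed to five compound concentrations for 48 h, and endpoints were estimated by linear interpolation. At the TGI there is no net growth.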

Experiments:
Test in all cases: NCI tumour cell line growth inhibition, 48 h
DU-145 prostate = system: DU-145 prostate
HCC-2998 colon = system: HCC-2998 colon
HT29 colon = system: HT29 colon
MALME-3M melanoma = system: MALME-3M melanoma
MDA-MB-231 breast = system: MDA-MB-231 breast
NCI-H522 lung = system: NCI-H522 lung
SK-MEL-5 melanoma = system: SK-MEL-5 melanoma
SN12C renal = system: SN12C renal
SW-620 colon = system: SW-620 colon
NCI-H226 lung = system: NCI-H226 lung

| Compound | TGI (DU-145 prostate) | TGI (HCC-2998 colon) | TGI (HT29 colon) | TGI (MALME-3M melanoma) | TGI (MDA-MB-231 breast) | TGI (NCI-H522 lung) | TGI (SK-MEL-5 melanoma) | TGI (SN12C renal) | TGI (SW-620 colon) | TGI (NCI-H226 lung) |
| --- | --- | --- | --- | --- | --- | --- | --- | --- | --- | --- |
| CCOC(=O)/C=C1\Nc2ccccc2C12CCc1c([nH]c3ccccc13)C2C(=O)OCC (configuration not stated) | > 100 µM | > 100 µM | > 100 µM | > 100 µM | > 100 µM | > 100 µM | > 100 µM | > 100 µM | > 100 µM | – |
| C#CC(C)(C)Oc1cc(OC)c2c(=O)c3ccccc3n(C)c2c1 | 55.8 µM | > 100 µM | > 100 µM | – | 56.1 µM | – | 23.4 µM | 49.9 µM | > 100 µM | 36.4 µM |
| COc1cc(C2C(Cl)C(=O)N2c2ccc(Br)cc2)cc(I)c1O (configuration not stated) | > 100 µM | – | > 100 µM | – | > 100 µM | > 100 µM | > 100 µM | > 100 µM | > 100 µM | – |
| COC(=O)Cc1c(C2=Nc3ccccc3C2(O)CC(=O)OC)[nH]c2ccccc12 (configuration not stated) | > 100 µM | – | > 100 µM | > 100 µM | > 100 µM | > 100 µM | > 100 µM | > 100 µM | > 100 µM | > 100 µM |
| CC(C)(CN1CCCCC1)C(=O)CC(SCCS(=O)(=O)O)c1ccc(Br)cc1 (configuration not stated) | – | 4.55 µM | 3.72 µM | 3.38 µM | – | 2.9 µM | 3.32 µM | 2.97 µM | – | 8.75 µM |
| CC1=NNC(N)=N/C1=C/C(Sc1ccc(Cl)cc1)c1cccs1 (configuration not stated) | 68.2 µM | 26.9 µM | 25.4 µM | 27.1 µM | – | 18.2 µM | 25.6 µM | 99.7 µM | 41.7 µM | 32.6 µM |
| O=C1CCSSCCC(=O)Nc2ccccc2N1 | > 100 µM | – | > 100 µM | > 100 µM | > 100 µM | > 100 µM | > 100 µM | > 100 µM | > 100 µM | > 100 µM |
| Cc1nc2c(n1Cc1ccc(Cl)cc1)C(=O)c1ccccc1C2=O | – | > 75 µM | > 75 µM | > 75 µM | – | > 75 µM | > 75 µM | > 75 µM | – | > 75 µM |
| N#Cc1c(N)c(-c2ccc(Cl)cc2)c(F)c2ccccc12 | – | > 100 µM | > 100 µM | > 100 µM | > 100 µM | > 100 µM | > 100 µM | > 100 µM | > 100 µM | > 100 µM |
| O=C(Cc1nc2ccc(C(=O)c3ccccc3)cc2[nH]c1=O)C(=O)Nc1ccccc1[N+](=O)[O-] | – | > 100 µM | > 100 µM | > 100 µM | > 100 µM | > 100 µM | > 100 µM | > 100 µM | > 100 µM | > 100 µM |
| Cc1ccc(S(=O)(=O)Nn2c(-c3ccccc3)c(C#N)c(-c3ccc([N+](=O)[O-])cc3)c(C#N)c2=O)cc1 | – | > 100 µM | > 100 µM | > 100 µM | > 100 µM | > 100 µM | > 100 µM | > 100 µM | > 100 µM | > 100 µM |
| O=C1/C(=C/c2cccc(Oc3ccccc3)c2)N=C(c2ccccc2)N1c1nc2ccc(Sc3ccccc3)cc2[nH]1 | > 100 µM | 26.3 µM | 63.2 µM | > 100 µM | 49.9 µM | 65.8 µM | 75.3 µM | 70.5 µM | > 100 µM | – |
| Cc1ccc(S(=O)(=O)C(C#N)c2nc3ccccc3nc2-n2cccn2)cc1 (configuration not stated) | – | > 100 µM | > 100 µM | > 100 µM | – | – | – | > 100 µM | – | > 100 µM |
| C/C(=N\N=C(N)N)c1c(C(=O)OCCCCCCOC(=O)c2nc3sccn3c2/C(C)=N/N=C(N)N)nc2sccn12 | – | > 100 µM | > 100 µM | > 100 µM | > 100 µM | > 100 µM | > 100 µM | > 100 µM | > 100 µM | > 100 µM |
| N#Cc1c(=O)c2cccnc2n2c1[nH]c1ccccc12 | > 100 µM | > 100 µM | > 100 µM | – | > 100 µM | – | – | > 100 µM | > 100 µM | > 100 µM |
| O=[N+]([O-])c1ccc2nc3ccc([N+](=O)[O-])cn3c2c1 | > 100 µM | – | > 100 µM | > 100 µM | > 100 µM | 65.5 µM | > 100 µM | > 100 µM | > 100 µM | > 100 µM |
| O=C(c1cccs1)N(C(=S)N1CCN(c2ccccc2)CC1)c1ccccc1 | – | – | > 100 µM | > 100 µM | – | > 100 µM | > 100 µM | > 100 µM | > 100 µM | > 100 µM |
| O=C1NC(=O)/C(=C\c2ccncc2)N1 | > 100 µM | > 100 µM | > 100 µM | – | > 100 µM | – | > 100 µM | > 100 µM | > 100 µM | > 100 µM |
| NC1=NS(=O)(=O)N=C(N)C1=Cc1ccc([N+](=O)[O-])o1 | – | 45.8 µM | 34 µM | 29.7 µM | – | 31.5 µM | 28.6 µM | 30.1 µM | 32.7 µM | 53.7 µM |

| Compound | TGI (DU-145 prostate) | TGI (HCC-2998 colon) | TGI (HT29 colon) | TGI (MALME-3M melanoma) | TGI (MDA-MB-231 breast) | TGI (NCI-H522 lung) | TGI (SK-MEL-5 melanoma) | TGI (SN12C renal) | TGI (SW-620 colon) | TGI (NCI-H226 lung) |
| --- | --- | --- | --- | --- | --- | --- | --- | --- | --- | --- |
| [N-]=[N+]=NC1(c2ccccc2)C(=O)Nc2ccccc2C1=O (configuration not stated) | > 100 µM | > 100 µM | > 100 µM | > 100 µM | > 100 µM | – | 33.1 µM | > 100 µM | 82.4 µM | – |
| CCOC(=O)CCC(NC(=O)OCc1ccccc1)C(=O)NNC(=O)OC(C)(C)C (configuration not stated) | > 100 µM | > 100 µM | > 100 µM | > 100 µM | > 100 µM | > 100 µM | > 100 µM | > 100 µM | > 100 µM | – |
| O=C1CSC2(CC(/C=C/C=C/c3ccccc3)=NN2c2cccc(S(=O)(=O)O)c2)N1c1nc2ccccc2s1 (configuration not stated) | – | > 100 µM | > 100 µM | – | > 100 µM | > 100 µM | > 100 µM | > 100 µM | > 100 µM | > 100 µM |
| OC(CC(c1ccccc1)c1ccc(Cl)cc1)c1ccc(Cl)cc1 (configuration not stated) | > 100 µM | > 100 µM | > 100 µM | 79.1 µM | – | 69.1 µM | 88.1 µM | > 100 µM | > 100 µM | 97.5 µM |
| CCOC(=O)CCC1(C(=O)OC)CCCC1=O (configuration not stated) | – | > 100 µM | > 100 µM | > 100 µM | – | > 100 µM | > 100 µM | – | > 100 µM | – |
| CC1=NN(C(=O)CC(=O)Nc2cccc(Cl)c2)C(=O)C1N=Nc1ccc(S(N)(=O)=O)cc1 (configuration not stated) | – | > 100 µM | > 100 µM | > 100 µM | – | > 100 µM | > 100 µM | > 100 µM | > 100 µM | > 100 µM |
| CCCCc1ccc2[n+](c1)C(C(=O)OCC)=PC2 (configuration not stated) | > 100 µM | > 100 µM | > 100 µM | > 100 µM | – | > 100 µM | > 100 µM | > 100 µM | > 100 µM | – |
| O=c1[nH]c(=O)n(C2CC(O)C(CO)O2)cc1C#Cc1ccc(C(F)(F)F)cc1 (configuration not stated) | – | > 100 µM | > 100 µM | > 100 µM | – | > 100 µM | > 100 µM | > 100 µM | > 100 µM | > 100 µM |
| CC(=O)N[C@@H](Cc1ccc(O)cn1)C(=O)NCc1ccc2c(c1)OCO2 | > 100 µM | > 100 µM | > 100 µM | > 100 µM | – | > 100 µM | > 100 µM | > 100 µM | > 100 µM | > 100 µM |
| C/C(=N\N(C)C)C(CN(C)C)C(c1ccccc1)c1c(O)c2ccccc2oc1=O (configuration not stated) | – | > 100 µM | > 100 µM | > 100 µM | – | > 100 µM | > 100 µM | > 100 µM | > 100 µM | > 100 µM |
| c1ccc2c3c(ccc2c1)CSCc1ccc2ccccc2c1-3 | > 100 µM | > 100 µM | > 100 µM | > 100 µM | > 100 µM | > 100 µM | > 100 µM | > 100 µM | – | – |
| O=c1c(Cc2ccc(Cl)cc2)nnc2sc(-c3ccc([N+](=O)[O-])cc3)nn12 | > 100 µM | 42.6 µM | > 100 µM | 55.5 µM | 66.3 µM | – | – | > 100 µM | 80.8 µM | – |
| O=C1CCC2(CCC(=O)NC2=O)C(=O)N1 | – | > 100 µM | > 100 µM | > 100 µM | – | > 100 µM | > 100 µM | > 100 µM | > 100 µM | > 100 µM |
| c1ccc(C2=NN3CN(N2)c2ccccc2OCCCOc2ccccc23)cc1 | – | – | > 100 µM | > 100 µM | – | > 100 µM | > 100 µM | > 100 µM | > 100 µM | > 100 µM |
| CCOC(=O)c1c2c(n(C)c1-c1ccccc1)C(=O)C(C)=CC2=O | 35.2 µM | – | 35.1 µM | 22.8 µM | 4.62 µM | 5.83 µM | 21.5 µM | 24.1 µM | 19.8 µM | 24.9 µM |
| Brc1ccc(N2C[N+](c3ccc(Br)cc3)=NC(c3ccccc3)=N2)cc1 | – | 28.7 µM and > 100 µM | 27.8 µM and > 100 µM | 31.2 µM and > 100 µM | – | 36.4 µM and > 100 µM | 29.4 µM and > 100 µM | 33.3 µM and > 100 µM | 40.9 µM and > 100 µM | 44.4 µM and > 100 µM |
| CC1=NN(c2nc(N)nc(/C(C#N)=C/c3ccncc3)n2)C(C)(C)C1 | > 100 µM | > 100 µM | > 100 µM | – | > 100 µM | – | > 100 µM | – | > 100 µM | > 100 µM |
| Cc1ccc2c(c1)c(=O)c1c(NCCN(C)C)ccc3nnn2c31 | – | 17 µM | 12 µM | 18 µM | – | 17.6 µM | 14.1 µM | > 42 µM | 18 µM | 10.3 µM |
